This is an account of results in patent US20210301315A1, “METHODS FOR TREATING POLYMICROBIAL INFECTIONS” (priority 2017, published 2021).

Test [1] concerns bacterial organisms present in patient urine sample. Put plainly: Antibiotic Resistance (ABR) assay utilizing agar-containing medium. The class given is cell-based. As for the experimental part:
Urine samples suitable for processing with this assay are collected, transported, and stored using BD Vacutainer (gray top) tubes or other suitable leak-proof sterile container. Urine samples may be held at room temperature for 48 hours before test results are compromised.
Antibiotic stocks are stored at 2-8° C. and protected from direct sunlight. Prepared antibiotic stock solutions were aliquoted into a 96-deep well plate (Thermo Fisher Scientific) to form an Antibiotic Source Plate, as shown in FIG. 11 and identified by antibiotic name and concentration (μg/mL; 10× final concentration). […] One well was designated AB-blend which contained a combination of antibiotics to ensure there was no bacterial growth.
One hundred microliters of Mueller-Hinton agar medium was aliquoted into each appropriate well position of a 96-well microplate (VIS 96/F-PS, Eppendorf). The medium was allowed to solidify at room temperature for at least 10 min.
The antibiotics (10 μL) at various concentrations were then aliquoted into desired wells from the Antibiotic Source Plate. After the antibiotics were introduced to the agar medium, the ABR microplates were allowed to sit for at least 1 hr before use. If long-term storage is required, ABR microplates containing antibiotic-infuse agar are stored at 2-8° C. in the dark.
At the time of testing, urine samples were diluted 1:20 in sterile saline and vortexed. Each patient sample utilized a single ABR microplate. Five microliters of diluted patient sample were added to each well of the room temperature microplate, the plate was sealed and incubated for 16-18 hr at 37° C.
After incubation, the plate was removed from the incubator and carefully uncovered. Two-hundred microliters of deionized water were added to each well to suspend cells present above the agar and the plates incubated at room temperature for 30 min. After 30 min, 100 μl from each well was removed to a new plate and the OD600 was determined in a spectrophotometer. Five separate reads were taken of each plate and a mean OD600 measurement calculated.
Controls include: No-antibiotic control, Negative control plate, and AB-Blend. No antibiotic control: Any well containing medium that is not infused with antibiotics to ensure viability of bacterial cells present in patient urine samples and included in each plate. […] Negative control plate: Microplate containing antibiotic-infused agar medium without addition of patient sample or cultured bacterial organisms to ensure non-contamination of reagents. AB-Blend: One or more wells containing a combination of antibiotics to ensure there is no bacterial growth.
The raw data was then “blanked” using the measurement obtained from the AB-Blend well, as depicted in Table 5.
(§1) To determine whether bacterial organisms present in the patient samples were resistant or sensitive to a particular antibiotic at a certain concentration, blanked OD readings were compared to a threshold OD600 of 0.025 (Table 6). Any OD measurement greater than or equal to this threshold was designated Resistant (R) meaning bacterial organisms present in patient sample were resistant to that particular antibiotic at that certain concentration. Any OD measurement less than this threshold was designated Sensitive (S) meaning bacterial organisms present in patient sample were sensitive to that particular antibiotic at that certain concentration.

For test [2] the test system is unchanged. Put plainly: Antibiotic Resistance (ABR) assay utilizing liquid growth medium. The class given is cell-based. The note with it: liquid medium. Here is the method: Urine samples suitable for processing with this assay are collected, transported, and stored using BD Vacutainer tubes or other suitable leak-proof sterile containers. Urine samples may be held at room temperature for 48 hours before test results are compromised.
Antibiotic stocks are stored at 2-8° C. and protected from direct sunlight. Prepared antibiotic stock solutions were aliquoted into a 96-deep well plate (ThermoFisher Scientific) to form a 50× Antibiotic Source Plate and then diluted 1:5 to form a 10× Antibiotic Source Plate, as shown in FIG. 12 where each well is identified by antibiotic name and concentration (μg/mL; 10× final concentration). […] One well was assigned sodium azide to ensure no bacterial growth would be observed in that well.
Twenty microliters of each antibiotic solution were aliquoted into the pre-determined wells of a 96-well microplate (VIS 96/F-PS, Eppendorf) from the 10× Antibiotic Source Plate to create ABR testing plates for inoculation. These ABR testing plates were allowed to sit for up to 24 hours before use at 2-8° C. in the dark.
At the time of testing, urine samples were centrifuged to concentrate any bacterial cells and then mixed with liquid Mueller-Hinton medium and incubated for 6-16 hours at 37° C. After this initial incubation, the sample is diluted to 0.5-0.6 McF in saline and then 500 μl of that suspension was added to […] of Mueller-Hinton medium. One-hundred and eighty microliters of the diluted sample is then aliquoted to each well of the ABR microplate already containing 10× antibiotic solution, bringing all of the antibiotics to the desired final concentration. The plate is then sealed and incubated for 12-16 hours at 37° C.
After incubation, the plate was removed from the incubator and carefully uncovered and the OD600 was determined for each appropriate well by spectrophotometer. Five separate measurements were taken of each well on a plate and the mean OD600 measurement calculated for each well.
Controls are depicted in Table 10.
The raw data was then “blanked” using the measurement obtained from the Na-Azide well, as depicted in Table 14.
as §1, with “0.065” for “0.025”, “15). An” for “6). Any”

In test [3] the test system is E. coli and S. agalactiae. Put plainly: P-AST species-pair interaction on antibiotic resistance (logistic regression, HSAP/UP). The class given is cell-based, Escherichia coli; Streptococcus agalactiae. The note with it: E. coli and S. agalactiae together v. expected from each species alone (HSAP/UP). Here is the method:
(§2) The Pooled Antibiotic Sensitivity Test (P-AST) is permitting the organisms identified to grow in the presence of antibiotics and measuring the minimum concentration of antibiotic to inhibit growth. Antibiotic susceptibility testing is performed when at least a single organism within a pool of organisms reaches a certain threshold, (e.g., at least 3,000 cells/ml, at least 5,000 cells/ml, at least 10,000 cells/ml, etc.) and can grow in the presence of the antibiotic in the assay within the time of testing. (Note: 10,000 cells/ml is equivalent to 10,000 CFU/ml.) The present invention is not limited to a 10,000 cells/mL threshold. These pools of organism(s) are inoculated into growth medium then placed onto an antibiotic laden “spec plate” that is then incubated and analyzed for growth. The breakpoints are derived from the CLSI breakpoints.
(§3) P-AST was performed by aliquoting 1 mL of patient urine specimen into a 1.7 mL microcentrifuge tube. After centrifugation, the supernatant was aspirated and discarded, leaving approximately 100 or 50 μL (minimum volume left above pellet created from centrifugation) of patient sample in the microcentrifuge tube. One mL of Mueller Hinton Growth Media was then aliquoted into the patient sample in the microcentrifuge tube and the tubes were incubated at 35° C. in a non-CO2 incubator for 6 hours. Non-inoculated liquid MH-media is incubated as the negative control to confirm the media used is not contaminated. Those samples that reached a minimum threshold of 10,000 cells/mL were then diluted by aliquoting 0.5 mL of sample into a 50 mL conical tube containing Mueller Hinton Growth Media (in this example, the dilution was 1:60, e.g., 500 μL was added to 29.5 mL). 96-well plates pre-loaded with antibiotics were then inoculated with diluted samples and incubated along with control plates for 12-16 hours at 35° C. in a single layer. Optical density of samples was then read on a DensiCHEK plate reader. The DensiCHEK instrument is used to measure the concentration of turbid samples considered positive because PCR-ID result was >=10,000 cells/mL. The turbid samples were diluted/normalized to the same concentration and then added to a volume of liquid, e.g., 29.5 mL of liquid MH-media. A spectrophotometer (plate reader) is used to measure optical density of the samples in wells of antibiotics and inoculum in order to determine if there is growth in a well. The present invention is not limited to a concentration of 10,000 cells/mL.
(§4) Interactions between pairs of bacterial species were investigated using a logistic regression model to predict resistance in the presence of specific bacterial species. Bacterial species that tested positive in at least 30 samples were considered in the regression model: these 16 species were A. schaalii, A. urinae, A. omnicolens, CoNS, C. riegelii, E. faecalis, E. coli, K. oxytoca, K. pneumoniae, M. morganii, P. mirabilis, P. aeruginosa, S. aureus, S. agalactiae, U. urealyticum, VGS. Backward stepwise model selection was performed on the model with all main effects and all pairwise interactions using an enter significance level of α=0.10 and an exit significance level of α=0.05 to obtain the best fitting model. This model was used to predict resistance rates when a specific organism was present or when a specific pair of organisms were present.
(§5) Using the logistic regression model described above, the resistance rate for a pair of species was compared to the resistance rates for each species alone. […]

For the next test, the system named is E. coli and P. mirabilis. The description is as above. The class given is cell-based, Escherichia coli; Proteus mirabilis. The following applies: E. coli and P. mirabilis together v. expected from each species alone (HSAP/UP). As for the experimental part: as §2, §3, §4, §5

“Also recorded” adds a separate entry of the source.

`CN(C)[C@@H]1C(O)=C(C(N)=O)C(=O)[C@@]2(O)C(O)=C3C(=O)c4c(O)cccc4[C@@](C)(O)[C@H]3C[C@@H]12` [tetracycline]: the “Blanked (OD600 minus AB-Blend well)” value in test [1] (antibiotic 4 μg/mL) is 0.3920; in test [1] (antibiotic 8 μg/mL) it was 0.4012; in test [1] (antibiotic 16 μg/mL), 0.4166. Further, the “Mean (OD600)” value stood at 0.4304 in test [1] (antibiotic 4 μg/mL); 0.4396 in test [1] (antibiotic 8 μg/mL); 0.4550 in test [1] (antibiotic 16 μg/mL); 0.2084 in test [2] (antibiotic 2 μg/mL); 0.2224 in test [2] (antibiotic 4 μg/mL); 0.1596 in test [2] (antibiotic 8 μg/mL). In addition, the “Mean (OD600)” value in test [2] (antibiotic 16 μg/mL) stood at 0.0539. The “Blanked (OD600 minus Na-Azide well)” value in test [2] (antibiotic 2 μg/mL) is on record as 0.1627; in test [2] (antibiotic 4 μg/mL), 0.1767; in test [2] (antibiotic 8 μg/mL), 0.1139; in test [2] (antibiotic 16 μg/mL), 0.0082.

For `CC(C)(O/N=C(\C(=O)N[C@@H]1C(=O)N2C(C(=O)[O-])=C(C[n+]3ccccc3)CS[C@H]12)c1csc(N)n1)C(=O)O` [Ceftazidime, ceftazidime], the “change in antibiotic resistance of the pair of organisms” value in test [3] is “decrease in resistance; also recorded: decreased odds of resistance”; with E. coli and P. mirabilis, “decrease in resistance; also recorded: decreased odds of resistance”. Further, the “Blanked (OD600 minus Na-Azide well)” value in test [2] (antibiotic 4 μg/mL) is reported as 0.2000; in test [2] (antibiotic 8 μg/mL), 0.2150; in test [2] (antibiotic 16 μg/mL), 0.2016; in test [2] (antibiotic 32 μg/mL), 0.1980. The “Mean (OD600)” value in test [2] (antibiotic 4 μg/mL) was 0.2457; in test [2] (antibiotic 8 μg/mL) it was 0.2607; in test [2] (antibiotic 16 μg/mL) it was 0.2473; in test [2] (antibiotic 32 μg/mL), 0.2437.

Consider `Cc1nnc(SCC2=C(C(=O)O)N3C(=O)[C@@H](NC(=O)Cn4cnnn4)[C@H]3SC2)s1` [Cefazolin, cefazolin], for which the “Blanked (OD600 minus Na-Azide well)” value came to 0.1882 in test [2] (antibiotic 2 μg/mL), 0.1633 in test [2] (antibiotic 8 μg/mL), 0.1011 in test [2] (antibiotic 16 μg/mL) and 0.0113 in test [2] (antibiotic 32 μg/mL). Also, the “Mean (OD600)” value in test [2] (antibiotic 2 μg/mL) is reported as 0.2339; in test [2] (antibiotic 8 μg/mL), 0.2090; in test [2] (antibiotic 16 μg/mL) it was 0.1468; in test [2] (antibiotic 32 μg/mL) it was 0.0570. The “change in antibiotic resistance of the pair of organisms” value with E. coli and P. mirabilis is reported as “decrease in resistance; also recorded: decreased odds of resistance”.

Consider `C[C@H]1COc2c(N3CCN(C)CC3)c(F)cc3c(=O)c(C(=O)O)cn1c23` [Levofloxacin, levofloxacin], for which the “Blanked (OD600 minus AB-Blend well)” value in test [1] (antibiotic 1 μg/mL) amounted to 0.0024; in test [1] (antibiotic 2 μg/mL), 0.0017; in test [1] (antibiotic 4 μg/mL), 0.0360; in test [1] (antibiotic 8 μg/mL) it was 0.0028. The “Mean (OD600)” value came out at 0.0408 in test [1] (antibiotic 1 μg/mL); 0.0401 in test [1] (antibiotic 2 μg/mL); 0.0744 in test [1] (antibiotic 4 μg/mL); 0.0412 in test [1] (antibiotic 8 μg/mL); 0.1180 in test [2] (antibiotic 1 μg/mL); 0.0436 in test [2] (antibiotic 2 μg/mL). In addition, the “Mean (OD600)” value in test [2] (antibiotic 4 μg/mL) was found to be 0.0431; in test [2] (antibiotic 8 μg/mL), 0.0443. For the same molecule, the “Blanked (OD600 minus Na-Azide well)” value is reported as 0.0723 in test [2] (antibiotic 1 μg/mL), −0.0021 in test [2] (antibiotic 2 μg/mL), −0.0026 in test [2] (antibiotic 4 μg/mL) and −0.0014 in test [2] (antibiotic 8 μg/mL).

Turning to `O=C1CN(/N=C/c2ccc([N+](=O)[O-])o2)C(=O)N1` [Nitrofurantoin, nitrofurantoin], the “Blanked (OD600 minus AB-Blend well)” value in test [1] (antibiotic 32 μg/mL) is 0.0003; in test [1] (antibiotic 64 μg/mL) it was 0.0002. Further, the “Mean (OD600)” value in test [1] (antibiotic 32 μg/mL) was found to be 0.0387; in test [1] (antibiotic 64 μg/mL) it was 0.0386; in test [2] (antibiotic 32 μg/mL), 0.0552. For the same molecule, in test [2] (antibiotic 32 μg/mL), the “Blanked (OD600 minus Na-Azide well)” value is 0.0095.
